Experimental data taken from patent publication US20170166928A1, “Compositions And Methods For Genetically Modifying Yeast” (priority 2015, published 2017).

System: Candida albicans
Assay: Growth of Candida albicans strains in medium with drug
Assay type: cell-based
Details: for drug resistance of cdr1/cdr1 cdr2/cdr2 double mutants versus parental isolate: clinical isolate Can90; for doubling time: liquid growth in 1.2 μg/ml fluconazole
Experimental: Candida albicans strain SC5314 was used for all experiments unless otherwise noted. The fluconazole-resistant C. albicans strain Can90 was kindly provided by the Massachusetts General Hospital. Yeast strains were grown in YPD (1% Bacto Yeast extract, 2% Bacto Peptone, 2% Dextrose) medium supplemented with 0.27 mM uridine, and selected using Nourseothricin (Nat) at a concentration of 200 μg/ml. Transformations were performed using the lithium acetate method (27). Flipout of Nat^R gene from Cas9-expressing Duet vector pV1025 was done by induction of flippase by growth in Difco yeast carbon base with bovine serum albumin, and screening for isolates that had lost the Nat^R gene. Filamentation experiments were performed with yeast grown overnight in liquid YPD, washed twice in RPMI-1640 medium (Cat #22400-105, Life Technologies) supplemented with 10% fetal bovine serum, and incubated in RPMI+10% FBS for the indicated time at a starting OD of 0.1. Growth curves were performed in a clear-bottomed 96-well plate, incubated with shaking at 30° C. in a Tecan Saphire^2 plate reader, reading optical density at 600 nm every 5 minutes for the indicated time. YPD-grown overnight yeast cultures were used to inoculate these wells to an initial OD of 0.05. CRISPR-mutagenized loci were verified by sequence analysis of PCR products amplified from the target locus and by restriction digest where applicable.

SMILES	drug resistance of cdr1/cdr1 cdr2/cdr2 double mutants versus parental isolate	drug sensitivity of snf1-K81R strain (SC5314 snf1-K81R)	doubling time (ade2 CDR1 CDR2 strain) [h]	doubling time (ade2 cdr1 cdr2 mutant) [h]
C[C@@H]1C[C@@H]([C@H](O)CC2CC(=O)NC(=O)C2)C(=O)[C@@H](C)C1 [cycloheximide]	no longer displayed the hyper-resistance	–	–	–
OC(Cn1cncn1)(Cn1cncn1)c1ccc(F)cc1F [fluconazole]	no longer displayed the hyper-resistance	hypersensitive	6	12
